Experimental findings from the METLIN SMRT retention time set (Domingo-Almenara et al. 2019) are described below.

The data set can be described thus: gradient 5% acetonitrile 3 min, to 50% in 2 min, to 85% in 15 min, held 3 min, 100 µL/min. Conditions: column: Zorbax Extend-C18 2.1 x 50 mm; eluents: water / acetonitrile, 0.1% formic acid. The method in brief: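 Using water and acetonitrile that each contained 0.1% formic acid, mixtures of ~100 pure standards were separated at 100 μL/min on a Zorbax Extend-C18 column (2.1 × 50 mm, 1.8 μm). The HPLC fed a quadrupole time-of-flight mass spectrometer working in positive and negative ionization mode, with dead and dwell volumes of 40 μL and 900 μL. Data were acquired over 3 months. Retention time was read from computationally picked adduct peaks after manual inspection of each.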
In turn, `Cc1ccccc1N1CCN(CCc2nnc3n2CCCC3)CC1` had an RP-LC retention time of 573 s. Under `Cc1c(C)n(CCCN2CCOCC2)c2ncn3nc(C(C)N4C(=O)c5ccccc5C4=O)nc3c12` (stereo not given) stands 662 s. The compound `COC(=O)c1c(NCCc2ccccc2)c2cc(F)ccc2[nH]c1=O` displayed an RP-LC retention time of 791 s. In the case of `Cc1ccccc1-n1c(=O)c2sccc2n(Cc2nc(-c3ccc(C(F)(F)F)cc3)no2)c1=O` it was 1120 s; in that of `O=C(O)/C(=C/c1ccccc1)c1ccccc1`, 923 s. In the case of `O=C(NC1CCN(c2ccccc2)C1=O)c1ccc(Br)o1` (stereo not given), the RP-LC retention time is 773 s.

For `O=C1NCCCCCN(Cc2ccc(F)cc2F)[C@H]2CCC[C@@H]12`, the RP-LC retention time was found to be 623 s.

Turning to `Cc1cc(C)n(Cc2nc(-c3ccc(NC(=O)c4ccc5c(c4)OCO5)cc3)oc2C)n1`, the RP-LC retention time is 888 s.

For `Cc1sc(NC(=O)c2ccc(F)cc2)nc1-c1ccc2c(c1)NC(=O)CO2`, the RP-LC retention time came to 872 s.

`COC(=O)c1sc2ccc(NC(=O)C3CCN(S(=O)(=O)c4cccs4)CC3)cc2c1OC` yielded an RP-LC retention time of 988 s. `CCc1nc(-c2csc(S(=O)(=O)N3CCCC(C(=O)Nc4cccc(C)c4C)C3)c2)no1` (stereo not given) gave an RP-LC retention time of 1060 s. In the case of `CN(C)C(=O)c1ccc2c(c1)N(CC(=O)NCCc1c[nH]c3ccccc13)C(=O)C1CCCCN21` (stereo not given) it was 781 s; in that of `CS(=O)(=O)N1CCC(OC2CCN(C(=O)c3ccc(Cl)cc3)CC2)CC1`, 767 s; in that of `COC(=O)c1c(-c2ccccc2)csc1NC(=O)C1CCN(C(C)=O)CC1`, 862 s. `COc1ccc(NC(=O)N2CCC3(CC2)NC(=O)c2ccccc2N3C)cc1`: the RP-LC retention time was determined as 700 s. Under `CC(C)(C)n1nnnc1C1CC2(CCOCC2)C(=O)N1Cc1cccc(C(F)(F)F)c1` (stereo not given) stands 862 s; under `Cc1ccc(-c2cc3n(n2)CCCN(C(=O)c2ccccn2)C3)cc1`, 766 s. `Nc1nc(N2CCC3(CC2)OCCO3)ncc1C(=O)NCc1ccccc1`: the RP-LC retention time is 705 s. Take `C=CCNC(=O)c1sc(Nc2cccc(C)n2)nc1C`: the RP-LC retention time is 697 s.

For the compound `O=C(NCCCN1CCCC1)c1ccc(-c2noc(-c3ccccc3)n2)s1`, the RP-LC retention time came to 680 s.

For the compound `Cc1nn2c(CNS(=O)(=O)c3c(C)noc3C)c(C)nc2s1`, the RP-LC retention time amounted to 640 s. Under `CCOC(=O)c1nc(NCc2cc(OC)ccc2OC)c2ccccc2n1` stands 768 s. `CCOc1ccccc1NC(=O)N1CCN(c2cc(C)nc(N3CCOCC3)n2)CC1` gave an RP-LC retention time of 631 s. The compound `Cc1cc(NC(=O)C2CCN(C(=O)c3cnn(-c4ccccc4)n3)CC2)no1` displayed an RP-LC retention time of 847 s. The compound `O=C(NCc1ccc2c(c1)OCO2)c1ncoc1-c1ccccc1C(=O)N1CCCC1` returned an RP-LC retention time of 757 s. In turn, `CCCn1c(=O)sc2cc(S(=O)(=O)N3CCC(C(=O)NC(C)CC)CC3)ccc21` (stereo not given) displayed an RP-LC retention time of 853 s. Compound `CC(NC(=O)Cn1c(=O)c2cccn2c2ccccc21)c1ccc2c(c1)OCCO2` (stereo not given) returned an RP-LC retention time of 794 s. In turn, `CC1CC=C(O)C12OCC(C)(C)CO2` (stereo not given) yielded an RP-LC retention time of 736 s.

For the compound `O=C(Nc1ccc(-c2nc3ccccc3[nH]2)cc1)c1ccccc1[N+](=O)[O-]`, the RP-LC retention time came out at 574 s. In the case of `O=C(c1cn(-c2ccc(-c3nc(C4CC4)no3)cn2)cn1)N1CCSCC1` it was 819 s; in that of `Cc1ccc2[nH]cc(CCNC(=O)COc3ccc(Cl)cc3)c2c1`, 955 s.

In the case of `Cc1csc(-c2cc(S(=O)(=O)Nc3cc(F)ccc3F)cn2CC(=O)N2CCCC2)n1`, the RP-LC retention time turned out to be 874 s.

As to `CC1(C)O[C@@H]2C[C@H]3[C@@H]4C[C@H](F)C5=CC(=O)C=C[C@]5(C)[C@@]4(F)[C@@H](O)C[C@]3(C)[C@]2(C(=O)CO)O1`, the RP-LC retention time was 921 s. Compound `Cc1cccc(S(=O)(=O)N2CCCC(C)(C(=O)NCc3cccc(F)c3)C2)c1` (stereo not given) came in with an RP-LC retention time of 972 s.

`COc1cc(C(=O)N2CCC3(CC2)NC(=O)c2ccc(F)cc2N3C)cc(OC)c1OC` gave an RP-LC retention time of 655 s. `Cn1c(=O)c(N2CCN(C(=O)c3ccc(F)c(Cl)c3)CC2)nc2ccccc21`: the RP-LC retention time is 966 s.

For `Cc1cccc(NC(=O)C2CCCN(c3nc4ccsc4c(=O)n3-c3cccc(C)c3)C2)c1` (stereo not given), the RP-LC retention time came to 1020 s. As for `CCOc1ccc(Nc2nc(-c3nnn(-c4ccc(OCC)cc4)c3C)ns2)cc1`, the RP-LC retention time turned out to be 1130 s. Under `Cc1nn(-c2nc3ccccc3[nH]2)c2c1C(=O)CC(c1ccc(F)cc1)C2` (stereo not given) stands 1000 s. Under `CC(C)CNC(=O)c1nc2cccnc2n(CC(C)C)c1=O` stands 940 s. In the case of `CCc1cc(C(=O)Nc2ccc(F)c(F)c2)no1` it was 952 s; in that of `O=C(Cc1ccccc1Cl)NCC1CCN(C(=O)Oc2ccccc2)CC1`, 704 s.

As to `O=C(NCCCCCCNC(=O)ON=C1CCCCC1)ON=C1CCCCC1`, the RP-LC retention time was determined as 926 s.

`Cc1cc(N2CCN(C(=O)c3ccc(N(C)C)cc3)CC2)nc2nncn12` returned an RP-LC retention time of 575 s.

Compound `O=C(Nc1ccc(N2CCOCC2)nc1)NC1CCCC1` had an RP-LC retention time of 585 s. `Fc1ccc(-c2csc(Cc3nc(-c4cccc(Cl)c4)no3)n2)cc1`: the RP-LC retention time stood at 1310 s. Consider `COCCNC(=O)NCCS(=O)(=O)N1CCN(c2cccc(C)c2)CC1`, for which the RP-LC retention time was 661 s. With `O=C(NCC1CCCO1)C1CCCN(c2ncccc2-c2noc(C3CCC3)n2)C1` (stereo not given), the RP-LC retention time came to 770 s. `CCC(C)NC(=O)Cn1cnc2nc(N3CCCC(C(=O)NC(C)C)C3)sc2c1=O` (stereo not given): the RP-LC retention time was determined as 643 s.

`CCOC(=O)Cn1cnc2c(-c3ccc(Br)cc3)csc2c1=O` yielded an RP-LC retention time of 998 s. Turning to `Cc1ccc(NS(=O)(=O)c2c(C)sc(C)c2-c2cc(C(F)(F)F)on2)cc1`, the RP-LC retention time is 1190 s.

For `Cc1nc([C@@H]2CN(C(=O)c3noc(C)c3Cn3cccn3)C[C@H]2C(N)=O)n[nH]1`, the RP-LC retention time worked out at 578 s. Regarding `CCc1noc(NC(C)=O)c1-c1ccc(C)c(S(=O)(=O)Nc2cccc(C)c2C)c1`, the RP-LC retention time stood at 897 s. Consider `O=S(=O)(CCc1ccccc1)NCC(O)Cc1ccccc1` (stereo not given), for which the RP-LC retention time was 792 s. On to `O=C(Nc1c(F)cc(F)cc1F)c1sc2ccccc2c1Cl`, for which the RP-LC retention time is 1030 s. `CCCc1cc(C2CCCN2C(=O)NCCc2ccccc2)no1` (stereo not given) gave an RP-LC retention time of 874 s.

For the compound `Cc1ccc(N2CCC(NC(=O)NCc3ccc(F)cc3)C2=O)cc1C` (stereo not given), the RP-LC retention time was 874 s. In the case of `O=C(Cn1cnc2nc(N3CCC(C(=O)NC4CC4)CC3)sc2c1=O)NC1CCCCC1` it was 649 s; in that of `O=C(COc1ccc(F)cc1)Nc1cnc(N2CCCCC2)nc1`, 931 s; in that of `CCc1noc(NC(C)=O)c1-c1ccc(C)c(S(=O)(=O)NCc2cccc(OC)c2)c1`, 807 s. In turn, `COCCNC(=O)c1nnc(-c2ccc(S(=O)(=O)N3CCC(C)CC3)cc2)o1` registered an RP-LC retention time of 838 s. Regarding `COc1cccc(CNC(=O)C2CCN(Cc3cn(C)c4ccc(Cl)cc34)CC2)c1`, the RP-LC retention time came to 700 s. Under `CCCCCCNc1nc(-c2ccc(OC)cc2)c(CCC(=O)O)s1` stands 716 s; under `O=C(Nc1c(-c2ccc(F)cc2)nc2ccccn12)C1CC1`, 578 s; under `COc1cc2c(c3oc4cccc(O)c4c(=O)c13)C1C=CO[C@@H]1O2` (stereo not given in full), 989 s. The compound `Cc1cc2c(=O)n(CC(=O)Nc3cccc(C(F)(F)F)c3)ccc2s1` yielded an RP-LC retention time of 886 s. In the case of `Cc1ccc(C(=O)N2C[C@H]3C[C@H](C2)[C@H]2CCCC(=O)N2C3)s1`, the RP-LC retention time worked out at 646 s. `COc1cc(Cl)c(NC(=O)CN2C(=O)CN(C)C(=O)c3ccccc32)c(OC)c1` showed an RP-LC retention time of 717 s.

For the compound `O=C1[C@H]2CN(Cc3cccc(Cl)c3)C[C@H]2C(=O)N1CCN1CCc2ccccc2C1`, the RP-LC retention time came to 659 s. `O=C(O)c1cccc2c1CCN2S(=O)(=O)c1ccccc1` registered an RP-LC retention time of 793 s. The compound `CCc1ccccc1S(=O)(=O)NCC(c1cccnc1)c1c[nH]c2ccccc12` (stereo not given) returned an RP-LC retention time of 706 s. For `COc1cc(=O)n2c(c1C(=O)NC1CCCCCCC1)CCCC2`, the RP-LC retention time stood at 734 s. Turning to `COc1ccc(Nc2nc(N(C)C)nc3nccnc23)cc1`, the RP-LC retention time came out at 563 s. `O=C(NCc1cccc(F)c1)C1c2ccccc2CCN1C(=O)C1CC1` (stereo not given) registered an RP-LC retention time of 840 s.

`CCCOC(=O)C1=CN(C)S(=O)(=O)N=C1C`: the RP-LC retention time came out at 796 s.

For `c1ccc(CCc2nnc3sc(-c4ccc5ccccc5n4)nn23)cc1`, the RP-LC retention time is 1180 s. For `Cc1ccc(C)c(NC(=O)Cn2nc3n(c2=O)CCCC3)c1`, the RP-LC retention time amounted to 708 s. In turn, `COc1ccc(C(=O)Nc2ccc3nc(N4CC(C)CC(C)C4)cc(C(=O)O)c3c2)cc1` (stereo not given) showed an RP-LC retention time of 680 s. Regarding `COc1ccc(NC(=O)N2CCCC(Cn3cnc4cccnc43)C2)c(OC)c1` (stereo not given), the RP-LC retention time came to 651 s.

In turn, `O=C(CSc1nnc2c(=O)n(-c3ccc(Br)cc3)ccn12)c1ccccc1` gave an RP-LC retention time of 866 s.
